Experimental findings from ChEMBL document CHEMBL1140688, “Sulfenamides as prodrugs of NH-acidic compounds: a new prodrug option for the amide bond” (Bioorg Med Chem Lett, 2007) are described below.

Molecules are shown by their SMILES.

What all share (assay type): physicochemical
Holding throughout (settings): buffer

Data set [1] in a line: Chemical stability assessed as half life at pH 6.5.
Data set [2] in a line: Chemical stability assessed as half life at pH 7.0.
Data set [3] can be described thus: Chemical stability assessed as half life at pH 6.0.

Consider `CCOC(=O)[C@@H](N)CSNC(=O)N1c2ccccc2C=Cc2ccccc21`, for which the half-life in data set [1] is 81.6 h; in data set [2] it was 50.4 h; in data set [3], 214 h.

For orientation: half-life means the time in which the quantity being followed falls by half.
